Test results published in patent US20120251495A1, “PTERIN BASED THERAPIES FOR INFLAMMATORY CONDITIONS” (priority 2008, published 2012).

Columns and labels:
Format in all cases: in vivo
hepatitis B virus (HBV) [1] = assay: Liver HBV DNA by quantitative PCR in HBV transgenic mice; settings: female HBV mice; 10 mg/(kg d), per os 14 days
hepatitis B virus (HBV) [2] = assay: Liver HBV DNA by Southern blot hybridization in HBV transgenic mice; settings: 10 mg/(kg d)
Description: Animals. Homozygous adult female and male transgenic HBV mice were used (20.6±2.8 g). The mice were originally obtained from Dr. Frank Chisari (Scripps Research Institute, La Jolla, Calif.) (Guidotti L G, Matzke B, Schaller H & Chisari F V. High-level hepatitis B virus replication in transgenic mice. J Virol 1995; 69:6158-6169) and were subsequently raised in the Biosafety Level 3 (BL-3) area of the AAALAC-accredited USU Laboratory Animal Research Center (LARC). The animals were derived from founder 1.3.32 (Guidotti L G, Matzke B, Schaller H & Chisari F V. High-level hepatitis B virus replication in transgenic mice. J Virol 1995; 69:6158-6169). This study was conducted in accordance with the approval of the Institutional Animal Care and Use Committee of Utah State University.
(§1) Experimental design. DCP was administered per os, once daily for 14 days to randomly assigned HBV transgenic mice at 23, 7.3, and 2.3 mg/(kg d). ADV was used as a positive control at 10 mg/(kg d) using the same treatment schedule and vehicle (0.4% CMC). On day 14, mice were euthanized to collect serum and liver samples to perform liver HBV DNA, liver core and serum HBe assays, serum cytokine/chemokine profiles, and IDO metabolite assays.
Liver HBV DNA assays. Southern blot hybridization and quantitative PCR (qPCR) were performed on liver tissues (Morrey J D, Motter N E, Tam B, Lay M & Fairman J. Efficacy of cationic lipid-DNA complexes (CLDC) on hepatitis B virus in transgenic mice. Antiviral Res 2008; 79:71-79). For Southern blot hybridization, the ratio of the viral DNA bands to the transgene band was used to determine the concentration of viral DNA per host DNA. This calculation was based upon the knowledge that there were 1.3 copies of the transgene present per host cell with this line of transgenic mice. The transgene was used as an internal indicator to calculate the pg of HBV DNA per μg of homozygous cellular host DNA. For qPCR, the assay was run with a series of 10-fold dilutions of pooled liver DNA from HBV transgenic mice to obtain a standard curve. Mean C(t) values were obtained for duplicates of each sample. The mean C(t) values of each sample were used to obtain the log relative DNA values using a formula of the fit line of the standard curve.

HBe antigen = assay: Sera HBeAg ELISA in HBV transgenic mice; settings: females; 10 mg/(kg d)
Method: as §1
Sera HBeAg. Whole blood samples were obtained during necropsy by cardiac puncture, and processed for an HBeAg-specific ELISA (International Immuno Diagnostics, Foster City Calif.) (Money J D, Motter N E, Taro B, Lay M & Fairman J. Efficacy of cationic lipid-DNA complexes (CLDC) on hepatitis B virus in transgenic mice. Antiviral Res 2008; 79:71-79). Using the known PEI (Paul Ehrlich Institute) units for the calibrator, PEI units were formulated for the serial dilutions of the positive serum. A graph was generated, and extrapolation was used to assign a PEI unit value for each sample.

[3] = tested on: hepatitis B core antigen (HBcAg); assay: Liver HBcAg assay in HBV transgenic mice; settings: 10 mg/(kg d)
Method: as §1
Liver HBcAg assay. Liver biopsies were processed for detection of hepatitis B core antigen (HBcAg) (Motley J D, Motter N E, Taro B, Lay M & Fairman J. Efficacy of cationic lipid-DNA complexes (CLDC) on hepatitis B virus in transgenic mice. Antiviral Res 2008; 79:71-79). Three different parameters were obtained from each tissue section. […] The first two parameters were obtained by counting cells surrounding central veins as follows: the total number of cells, the number of cells with stained nuclei, and the number of cells with stained cytoplasms. The identities of the samples were blinded to person counting. The stained nuclei counts or the stained cytoplasm counts were divided by the total cells. Three central vein areas were counted for each slide sample. For the third parameter, a field not in a central vein area was counted for the total number of stained nuclei. One-quarter of the field was counted. Three such fields were counted per liver section. The identity of the samples was blinded to the person reading the slides.

SMILES: CC(C)(C)C(=O)OCOP(=O)(COCCn1cnc2c(N)ncnc21)OCOC(=O)C(C)(C)C [Adefovir dipivoxil, adefovir dipivoxil, reference compound]
- Log HBV DNA (PCR) versus controls (hepatitis B virus (HBV) [1]): significant treatment decreases
- Liver HBV DNA (Southern), Female levels (mean ± SEM) (hepatitis B virus (HBV) [2]; female): 3.5 ± 0.55 pg/µg
- Liver HBV DNA (Southern), Male levels (mean ± SEM) (hepatitis B virus (HBV) [2]; male): 1.5 ± 0.37 pg/µg
- HBe antigen (ELISA) versus controls (HBe antigen): significant increase
- HBcAg Stained nuclei/total, Female levels (mean ± SEM) ([3]; female): 27.7 ± 3.0
- HBcAg Stained nuclei/total, Male levels (mean ± SEM) ([3]; male): 14.1 ± 3.5
